Among the test systems are HCT-15; SN12C; OVCAR-4; SF-295; SF-539; COLO 205; Malme-3M; TK-10; 786-0; SK-MEL-2; MDA-MB-231; A549; UACC-62; OVCAR-5; CAKI-1; Hs-578T; NCI-H460; SF-268; NCI-H226; NCI-H522.
Holding throughout (assay): NCI anticancer screen, dose series, 48 h

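The compound was tested at five concentrations on cells cultured in 96-well plates, with a 48-hour exposure period. GI50 = concentration required for 50% inhibition of growth.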 The source made the active and inactive calls. Rule as the data show it: active = GI50 up to about 1.1 µM and inactive = higher.

Consider `O=C1/C(=C\c2cccc(Oc3ccccc3)c2)SC(c2ccccc2)N1c1ccccc1Cl` (stereo not drawn), for which the GI50 was 41.9 µM in the assay on HCT-15; 26 µM (inactive) in the assay with SN12C; 37.1 µM (inactive) in the assay on OVCAR-4; 33.8 µM (inactive) in the assay on SF-295; 19.1 µM (inactive) with SF-539; 21.8 µM (inactive) in the assay with COLO 205. The GI50 is 33.6 µM (inactive) in the assay on Malme-3M; 34.8 µM (inactive) in the assay with TK-10; 25.6 µM (inactive) in the assay with 786-0; 27.9 µM (inactive) with SK-MEL-2; 30.3 µM (inactive) in the assay with MDA-MB-231; 37.5 µM (inactive) in the assay on A549. The GI50 in the assay with UACC-62 was 25.5 µM (inactive); in the assay on OVCAR-5, 76 µM (inactive); in the assay on CAKI-1, 34 µM (inactive); in the assay with Hs-578T it was 16.5 µM (inactive); with NCI-H460, 29.6 µM (inactive); with SF-268 it was 33 µM (inactive). For the same compound, the figures for the GI50 in the assay on NCI-H226 and in the assay with NCI-H522 were 26.2 µM (inactive) and 13.6 µM (inactive), respectively.
Turning to `C[C@]12CC[C@@H]3c4ccc(OC(=O)c5ccccc5)cc4CC[C@H]3[C@@H]1CCC2OC(=O)c1cccc2c(=O)c3ccccc3[nH]c12` (stereo partly drawn), the GI50 in the assay on HCT-15 is 13.1 µM; in the assay with SN12C, 14.4 µM (inactive); with OVCAR-4, 15.6 µM (inactive); with SF-295, 18.2 µM (inactive); in the assay on SF-539, 16.6 µM (inactive); in the assay with COLO 205 it was 16.9 µM (inactive). For the same compound, the GI50 was 24.5 µM (inactive) with Malme-3M; 19.1 µM (inactive) with TK-10; 17.5 µM (inactive) with 786-0; 14.1 µM (inactive) in the assay on SK-MEL-2; 20.8 µM (inactive) with MDA-MB-231; 14.2 µM (inactive) in the assay with A549. Moreover, the GI50 in the assay with UACC-62 is 13.3 µM (inactive); in the assay with OVCAR-5, 18.2 µM (inactive); in the assay on CAKI-1 it was 27 µM (inactive); with Hs-578T, 18.1 µM (inactive); with NCI-H460, 17.4 µM (inactive); with SF-268 it was 22.8 µM (inactive). In addition, the GI50 in the assay with NCI-H226 is 17.9 µM (inactive); with NCI-H522, 23.3 µM (inactive).
For `O=S(=O)(N/C(=N\O)Nc1ccc(Cl)cc1)c1cc(C(F)(F)F)cc(C(F)(F)F)c1`, the GI50 with HCT-15 is 19.9 µM; in the assay with SN12C, 17.5 µM (inactive); in the assay with OVCAR-4 it was 15 µM (inactive); in the assay on SF-295 it was 18.3 µM (inactive); in the assay with SF-539, 22.3 µM (inactive); in the assay on COLO 205 it was 18.6 µM (inactive). Further, the GI50 with Malme-3M was 18 µM (inactive); in the assay with TK-10 it was 19.2 µM (inactive); in the assay with 786-0 it was 19.3 µM (inactive); in the assay on SK-MEL-2, 17.4 µM (inactive); with MDA-MB-231, 18.4 µM (inactive); in the assay on A549, 18.1 µM (inactive). Besides, the GI50 in the assay on UACC-62 was 16.7 µM (inactive); in the assay with OVCAR-5, 16.3 µM (inactive); with CAKI-1, 16.9 µM (inactive); in the assay with Hs-578T it was 23 µM (inactive); in the assay on NCI-H460, 26.4 µM (inactive); with SF-268, 21.6 µM (inactive). Besides, the GI50 with NCI-H226 was 19.1 µM (inactive); in the assay on NCI-H522 it was 18.9 µM (inactive).
As for `O=C(c1ccco1)N1CCN(C(=O)c2ccco2)C1=S`, the GI50 was 6.24 µM in the assay on HCT-15; 4.18 µM (inactive) in the assay with SN12C; 17.1 µM (inactive) with OVCAR-4; 18.5 µM (inactive) in the assay on SF-295; 3.33 µM (inactive) in the assay with SF-539; 6.81 µM (inactive) in the assay on COLO 205. Further, the GI50 with Malme-3M is 6.07 µM (inactive); in the assay with TK-10 it was 6.31 µM (inactive); with 786-0, 3.28 µM (inactive); with SK-MEL-2, 13 µM (inactive); with MDA-MB-231, 11.6 µM (inactive); in the assay with A549 it was 7.74 µM (inactive). Also, the GI50 with UACC-62 is 6.34 µM (inactive); in the assay on OVCAR-5, 20.3 µM (inactive); in the assay on CAKI-1, 4.72 µM (inactive); in the assay on Hs-578T, 20.7 µM (inactive); with NCI-H460 it was 8.73 µM (inactive); in the assay on SF-268 it was 6.01 µM (inactive). The GI50 was 28.7 µM (inactive) with NCI-H226 and 3.91 µM (inactive) with NCI-H522.
Turning to `COc1cccc2c1C(=O)c1c(O)c3c(c(O)c1C2=O)C[C@@](O)(C(=O)CO)C[C@@H]3OC1CC2C(OCN3CN2COC2C(C)OC(O[C@H]4C[C@](O)(C(=O)CO)Cc5c(O)c6c(c(O)c54)C(=O)c4c(OC)cccc4C6=O)CC23)C(C)O1` (stereo partly drawn), the GI50 is 0.161 µM in the assay on HCT-15; 0.0231 µM (active) in the assay with SN12C; 0.237 µM (active) in the assay with OVCAR-4; 0.0498 µM (active) in the assay with SF-295; 0.0377 µM (active) with SF-539; 0.0614 µM (active) in the assay with COLO 205. Further, the GI50 with Malme-3M is 0.0444 µM (active); with TK-10 it was 0.0412 µM (active); in the assay with 786-0, 0.02 µM (active); with SK-MEL-2, 0.0362 µM (active); with MDA-MB-231, 0.0741 µM (active); with A549 it was 0.0269 µM (active). Besides, the GI50 was 0.0345 µM (active) in the assay on UACC-62; 0.131 µM (active) in the assay on OVCAR-5; 0.0927 µM (active) with CAKI-1; 0.0559 µM (active) in the assay with Hs-578T; 0.00433 µM (active) in the assay on NCI-H460; 0.0319 µM (active) in the assay with SF-268. The results for the GI50 in the assay on NCI-H226 and with NCI-H522 were 0.0665 µM (active) and 0.0218 µM (active), respectively.
Consider `CC(=O)NC1=CC(=O)c2cc(C)cc(O)c2C1=O`, for which the GI50 in the assay on HCT-15 is 2.88 µM; with SN12C, 5.09 µM (inactive); in the assay with OVCAR-4, 8.49 µM (inactive); with SF-295 it was 19.2 µM (inactive); in the assay on SF-539 it was 6.84 µM (inactive); with COLO 205 it was 5.5 µM (inactive). Also, the GI50 in the assay on Malme-3M is 1.9 µM (inactive); in the assay with TK-10 it was 21 µM (inactive); with 786-0, 13.7 µM (inactive); in the assay with SK-MEL-2, 4.72 µM (inactive); with MDA-MB-231, 7.19 µM (inactive); in the assay with A549, 7.5 µM (inactive). Also, the GI50 was 2.02 µM (inactive) in the assay with UACC-62; 12.5 µM (inactive) with OVCAR-5; 17.8 µM (inactive) with CAKI-1; 31.8 µM (inactive) in the assay on Hs-578T; 14.9 µM (inactive) in the assay with NCI-H460; 9.33 µM (inactive) in the assay with SF-268. In addition, the GI50 in the assay on NCI-H226 was 19.8 µM (inactive); in the assay on NCI-H522, 8.83 µM (inactive).
For the compound `CCc1[nH]nc(C(N)=O)c1/N=N/N(C)C`, the GI50 in the assay on HCT-15 is 68.4 µM; in the assay with SN12C, 44 µM (inactive); with OVCAR-4, > 100 µM (inactive); in the assay on SF-295 it was 39.7 µM (inactive); with SF-539 it was 78.7 µM (inactive); in the assay with COLO 205, 98.9 µM (inactive). In addition, the GI50 in the assay on Malme-3M is 78.3 µM (inactive); in the assay with TK-10, > 100 µM (inactive); in the assay with 786-0 it was 89.7 µM (inactive); in the assay on SK-MEL-2, > 100 µM (inactive); in the assay on MDA-MB-231 it was > 100 µM (inactive); with A549, 43.5 µM (inactive). Besides, the GI50 was 34.4 µM (inactive) with UACC-62; 24.8 µM (inactive) with CAKI-1; 67.9 µM (inactive) in the assay on Hs-578T; 47.2 µM (inactive) in the assay on SF-268; 84.1 µM (inactive) with NCI-H226; 37.3 µM (inactive) with NCI-H522.
Consider `C/C(=N\Nc1nc2ccccc2s1)c1ccncn1`, for which the GI50 in the assay with HCT-15 was 0.661 µM; with SN12C, 0.379 µM (active); with OVCAR-4 it was 2.52 µM (inactive); in the assay with SF-295, 3.31 µM (inactive); in the assay with SF-539, 1.39 µM (inactive); with COLO 205 it was 0.126 µM (active). Besides, the GI50 was 0.705 µM (active) in the assay on Malme-3M; 0.719 µM (active) with 786-0; 8.09 µM (inactive) in the assay with SK-MEL-2; 0.499 µM (active) in the assay on MDA-MB-231; 2.22 µM (inactive) in the assay on A549; 1.44 µM (inactive) in the assay on UACC-62. Besides, the GI50 with OVCAR-5 is 3.13 µM (inactive); in the assay on CAKI-1, 0.145 µM (active); in the assay with Hs-578T it was 6.03 µM (inactive); with NCI-H460, 0.438 µM (active); in the assay with SF-268, 0.603 µM (active); with NCI-H226, 0.14 µM (active). Besides, in the assay with NCI-H522, the GI50 was 0.12 µM (active).
For `O=C(Cc1ccccc1)N/N=C(/CCN1CCCC1)CC(c1ccccc1)c1c(O)c2ccccc2oc1=O` (stereo not drawn), the GI50 with HCT-15 is 72.4 µM; with OVCAR-4 it was > 100 µM (inactive); with SF-539, > 100 µM (inactive); in the assay on COLO 205, 23.9 µM (inactive); with Malme-3M, 57.4 µM (inactive); in the assay on TK-10, > 100 µM (inactive). The GI50 in the assay with 786-0 was > 100 µM (inactive); with SK-MEL-2, > 100 µM (inactive); in the assay on MDA-MB-231, 26 µM (inactive); in the assay on A549 it was > 100 µM (inactive); in the assay on UACC-62, 63.7 µM (inactive); in the assay with OVCAR-5 it was > 100 µM (inactive). Besides, the GI50 is > 100 µM (inactive) in the assay with CAKI-1; 76.7 µM (inactive) with Hs-578T; > 100 µM (inactive) in the assay with SF-268; > 100 µM (inactive) with NCI-H226; 59 µM (inactive) in the assay on NCI-H522.
As to `COC(=O)C(/C(=N/N)C(=O)Nc1cc(Cl)c(Cl)cc1Cl)c1nc2ccc(Cl)cc2nc1O` (stereo not drawn), the GI50 in the assay on HCT-15 is above 100 µM; in the assay with SN12C, > 100 µM (inactive); with OVCAR-4, 2.79 µM (inactive); in the assay on SF-295, > 100 µM (inactive); in the assay on SF-539 it was > 100 µM (inactive); in the assay with Malme-3M it was > 100 µM (inactive). Also, the GI50 in the assay on TK-10, in the assay on 786-0, in the assay on SK-MEL-2, in the assay with MDA-MB-231, in the assay with A549 and with UACC-62 was > 100 µM (inactive) throughout. Moreover, the GI50 in the assay with OVCAR-5, in the assay with CAKI-1, in the assay on Hs-578T, in the assay with NCI-H460, with SF-268 and with NCI-H226 was > 100 µM (inactive) in each case. Further, the GI50 in the assay on NCI-H522 is 38.9 µM (inactive).

Values taken from ChEMBL document CHEMBL1201862, “PubChem BioAssay data set” (2004).
